For assay [1], the target named is T1, Tie2 (Homo sapiens, UniProt Q02763). In words: Tie2 ELISA assay (cellular Tie2 autophosphorylation). Format: cell-based. Further details: expressed in transfected cells; host or cells: CHO (CHO Tie2/DHFR). The conditions noted are these: CHO cells stably transfected with Tie2, stimulated by angiopoietin-2; Tie2 autophosphorylation by sandwich-ELISA; read-out: Tie 2 activity (assay 1). As for the experimental part: Cellular activity of compounds of the present invention as inhibitors of Tie2 kinase activity was measured employing a Tie2 ELISA assay as described in the following paragraphs. Herein CHO cell-cultures, which are stably transfected by known techniques with Tie2 using DHFR deficiency as selection marker, are stimulated by angiopoietin-2. The specific autophosphorylation of Tie2 receptors is quantified with a sandwich-ELISA using anti-Tie2 antibodies for catch and anti-phosphotyrosine antibodies coupled to HRP for detection.
• 96 well tissue culture plate, sterile, Greiner • 96 well FluoroNunc plate MaxiSorp Surface C, Nunc • 96 well plate polypropylene for compound dilution in DMSO • CHO Tie2/DHFR (transfected cells) • PBS−; PBS++, DMSO • MEM alpha Medium with Glutamax-I without Ribonucleosides and Deoxyribonucleosides (Gibco #32561-029) • with 10% FCS after dialysis! and 1% PenStrep • Lysis buffer: 1 Tablet “Complete” protease inhibitor • 1 cap Vanadate (1 mL>40 mg/mL; working solution 2 mM) • ad 50 mL with Duschl-Puffer • pH 7.6 • Anti-Tie2-antibody 1:425 in Coating Buffer pH 9.6 • Stock solution: 1.275 mg/mL>working.: 3 μg/mL • PBST: 2 bottles PBS (10×)+10 ml Tween, fill up with VE-water • RotiBlock 1:10 in VE-water • Anti-Phosphotyrosine HRP-Conjugated 1:10000 in 3% TopBlock • 3% TopBlock in PBST • BM Chemiluminescence ELISA Substrate (POD) • solution B 1:100 solution A • SF9 cell culture medium • Ang2-Fc in SF9 cell culture medium
• Dispense 5×10^4 cells/well/98 μL in 96 well tissue culture plate • Incubate at 37° C./5% CO2 • After 24 h add compounds according to desired concentrations • Add also to control and stimulated values without compounds 2 μL DMSO • And mix for a few min at room temperature • Add 100 μL Ang2-Fc to all wells except control, which receives insect medium • Incubate 20 min at 37° C. • Wash 3× with PBS++ • Add 100 μl Lysis buffer/well and shake a couple of min at room temperature • Store lysates at […] before utilizing for the ELISA
• Coat 96 well FluoroNunc Plate MaxiSorp Surface C with anti-Tie2 mAb 1:425 in Coating buffer pH 9.6; 100 μL/well overnight at 4° C. • Wash 2× with PBST • Block plates with 250 μL/well RotiBlock 1:10 in VE-water • Incubate for 2 h at room temperature or overnight at 4° C. shaking • Wash 2× in PBST • Add thawed lysates to wells and incubate overnight shaking at 4° C. • Wash 2× with PBST • Add 100 μL/well anti-Phosphotyrosine HRP-Conjugated 1:10000 in 3% TopBlock (3% TopBlock in PBST) and incubate overnight under shaking • Wash 6× with PBST • Add 100 μL/well BM Chemiluminescence ELISA Substrate (POD) solutions 1 und 2 (1:100) • Determine luminescence with the LumiCount. Assay 2: Tie-2-Kinase HTRF-Assay without Kinase Preactivation
(In general: In an ELISA, binding on a coated surface is turned into a signal by an enzyme label.)
Target sequence in this assay (Q02763 23-1124, species assumed): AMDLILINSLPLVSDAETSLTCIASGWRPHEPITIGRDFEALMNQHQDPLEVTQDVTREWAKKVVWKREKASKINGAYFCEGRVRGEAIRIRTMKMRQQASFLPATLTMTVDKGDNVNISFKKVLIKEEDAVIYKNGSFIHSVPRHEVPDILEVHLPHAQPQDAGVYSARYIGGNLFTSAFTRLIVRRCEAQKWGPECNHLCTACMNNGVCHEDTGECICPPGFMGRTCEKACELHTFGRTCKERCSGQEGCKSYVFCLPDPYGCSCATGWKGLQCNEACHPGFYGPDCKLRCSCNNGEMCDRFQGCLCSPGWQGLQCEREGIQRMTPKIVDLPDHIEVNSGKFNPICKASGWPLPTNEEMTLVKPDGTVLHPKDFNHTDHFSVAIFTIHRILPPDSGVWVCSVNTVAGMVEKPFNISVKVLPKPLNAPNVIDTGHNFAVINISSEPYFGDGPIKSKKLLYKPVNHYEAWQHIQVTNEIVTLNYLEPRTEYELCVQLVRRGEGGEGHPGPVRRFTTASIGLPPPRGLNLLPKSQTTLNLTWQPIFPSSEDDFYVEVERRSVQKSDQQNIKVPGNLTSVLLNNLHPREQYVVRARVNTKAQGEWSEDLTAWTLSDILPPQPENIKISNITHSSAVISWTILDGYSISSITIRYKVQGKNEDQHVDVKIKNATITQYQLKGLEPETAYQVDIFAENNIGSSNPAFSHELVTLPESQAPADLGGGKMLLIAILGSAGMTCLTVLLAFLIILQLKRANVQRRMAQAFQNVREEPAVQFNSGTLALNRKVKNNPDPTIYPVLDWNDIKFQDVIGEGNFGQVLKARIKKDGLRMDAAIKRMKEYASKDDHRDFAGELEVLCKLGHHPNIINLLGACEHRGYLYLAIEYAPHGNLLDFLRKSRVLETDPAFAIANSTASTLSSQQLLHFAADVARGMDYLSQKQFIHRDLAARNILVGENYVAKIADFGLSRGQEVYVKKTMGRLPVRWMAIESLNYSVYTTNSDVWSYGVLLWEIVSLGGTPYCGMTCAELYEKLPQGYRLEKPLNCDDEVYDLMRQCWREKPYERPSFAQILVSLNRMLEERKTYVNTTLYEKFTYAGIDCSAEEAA

The target of assay [2] is T1, Tie2. Kind of assay: Tie-2-Kinase HTRF-Assay without kinase preactivation. The conditions noted are these: GST-Tie-2 intracellular domains, 10 μM ATP. The class given is biochemical. On the set-up: fusion protein of GST and the intracellular domains of Tie-2; GST; made in house; host or cells: insect cells (Hi-5). The text has this: Tie2-inhibitory activity of compounds of the present invention was quantified employing two Tie2 HTRF assay as described in the following paragraphs.
A recombinant fusion protein of GST and the intracellular domains of Tie-2, expressed in insect cells (Hi-5) and purified by Glutathion-Sepharose affinity chromatography was used as kinase. Alternatively, commercially available GST-Tie2-fusion protein (Upstate Biotechnology, Dundee, Scotland) can be used As substrate for the kinase reaction the biotinylated peptide biotin-Ahx-EPKDDAYPLYSDFG (C-terminus in amid form) was used which can be purchased e.g. from the company Biosynthan GmbH (Berlin-Buch, Germany). Detection of phosphorylated product is achieved specifically by a trimeric detection complex consisting of the phosphorylated substrate, streptavidin-XLent (SA-XLent) which binds to biotin, and Europium Cryptate-labeled anti-phosphotyrosine antibody PT66 which binds to phosphorylated tyrosine.
Tie-2 (3.5 ng/measurement point) was incubated for 60 min at 22° C. in the presence of 10 μM adenosine-tri-phosphate (ATP) and 1 μM substrate peptide (biotin-Ahx-EPKDDAYPLYSDFG-NH2) with different concentrations of test compounds (0 μM and concentrations in the range 0.001-20 μM) in 5 μl assay buffer [50 mM Hepes/NaOH pH 7, 10 mM MgCl2, 0.5 mM MnCl2, 1.0 mM dithiothreitol, 0.01% NP40, protease inhibitor mixture (“Complete w/o EDTA” from Roche, 1 tablet per 2.5 ml), 1% (v/v) dimethylsulfoxide]. The reaction was stopped by the addition of 5 μl of an aqueous buffer (25 mM Hepes/NaOH pH 7.5, 0.28% (w/v) bovine serum albumin) containing EDTA (90 mM) and the HTRF (Homogeneous Time Resolved Fluorescence) detection reagents streptavidine-XLent (0.2 μM, from Cis Biointernational, Marcoule, France) and PT66-Eu-Chelate (0.3 ng/μl; a europium-chelate labelled anti-phospho-tyrosine antibody from Perkin Elmer).
The resulting mixture was incubated 1 h at 22° C. to allow the binding of the biotinylated phosphorylated peptide to the streptavidine-XLent and the PT66-Eu-Chelate. Subsequently the amount of phosphorylated substrate peptide was evaluated by measurement of the resonance energy transfer from the PT66-Eu-Chelate to the streptavidine-XLent. Therefore, the fluorescence emissions at 620 nm and 665 nm after excitation at 350 nm was measured in a HTRF reader, e.g. a Rubystar (BMG Labtechnologies, Offenburg, Germany) or a Viewlux (Perkin-Elmer). The ratio of the emissions at 665 nm and at […] was taken as the measure for the amount of phosphorylated substrate peptide. The data were normalised (enzyme reaction without inhibitor=0% inhibition, all other assay components but no enzyme=100% inhibition) and IC50 values were calculated by a 4 parameter fit using an inhouse software.
Target sequence in this assay (Q02763 770-1124 limits assumed, species assumed): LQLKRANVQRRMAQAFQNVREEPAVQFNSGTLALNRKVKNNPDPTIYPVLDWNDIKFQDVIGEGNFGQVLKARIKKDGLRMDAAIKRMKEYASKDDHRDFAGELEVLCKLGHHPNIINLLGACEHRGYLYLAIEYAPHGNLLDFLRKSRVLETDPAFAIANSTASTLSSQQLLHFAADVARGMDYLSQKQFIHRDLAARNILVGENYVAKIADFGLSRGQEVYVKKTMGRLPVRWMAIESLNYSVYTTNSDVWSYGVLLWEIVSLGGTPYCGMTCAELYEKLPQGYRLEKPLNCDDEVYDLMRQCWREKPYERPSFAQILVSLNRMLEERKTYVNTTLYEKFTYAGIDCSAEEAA

Regarding `Cn1ncc2c(-c3ccc(NC(=O)Nc4cc(C(F)(F)F)ccc4F)cc3)cncc21` [Example 1.2, 1-(2-Fluoro-5-trifluoromethyl-phenyl)-3-[4-(1-methyl-1H-pyrazolo[3,4-c]pyridin-4-yl)-phenyl]-urea], the IC50 on Tie2 [1] and at Tie2 [2] was under 501 nM in each case.
In the case of `Cc1ccc(F)c(NC(=O)Nc2ccc(-c3cncc4c3cnn4C)cc2)c1` [Example 1.3, 1-(2-Fluoro-5-methyl-phenyl)-3-[4-(1-methyl-1H-pyrazolo[3,4-c]pyridin-4-yl)-phenyl]-urea], the IC50 on Tie2 [1] and against Tie2 [2] was under 501 nM in each case.
Regarding `Cn1ncc2c(-c3ccc(NC(=O)Nc4cccc(C(F)(F)F)c4)cc3)cncc21` [Example 1.4, 1-[4-(1-Methyl-1H-pyrazolo[3,4-c]pyridin-4-yl)-phenyl]-3-(3-trifluoromethyl-phenyl)-urea], the IC50 on Tie2 [1] and on Tie2 [2] was under 501 nM throughout.
Consider `CCc1cccc(NC(=O)Nc2ccc(-c3cncc4c3cnn4C)cc2)c1` [Example 1.5, 1-(3-Ethyl-phenyl)-3-[4-(1-methyl-1H-pyrazolo[3,4-c]pyridin-4-yl)-phenyl]-urea], for which the IC50 on Tie2 [1] and on Tie2 [2] was under 501 nM throughout.
On to `Cn1ncc2c(-c3ccc(NC(=O)Nc4cc(C(F)(F)F)ccn4)cc3)cncc21` [Example 1.9, 1-[4-(1-Methyl-1H-pyrazolo[3,4-c]pyridin-4-yl)-phenyl]-3-(4-trifluoromethyl-pyridin-2-yl)-urea], for which the IC50 at Tie2 [1] and on Tie2 [2] was under 501 nM each time.
For `Cn1ncc2c(-c3ccc(NC(=O)Nc4cc(C(F)(F)F)ccc4Cl)cc3)cncc21` [Example 1.13, 1-(2-Chloro-5-trifluoromethyl-phenyl)-3-[4-(1-methyl-1H-pyrazolo[3,4-c]pyridin-4-yl)-phenyl]-urea], the IC50 on Tie2 [1] and against Tie2 [2] was under 501 nM each time.
For the molecule `Cn1ncc2c(-c3ccc(NC(=O)Nc4cccc(C(F)(F)F)c4)c(F)c3)cncc21` [Example 3.1, 1-[2-Fluoro-4-(1-methyl-1H-pyrazolo[3,4-c]pyridin-4-yl)-phenyl]-3-(3-trifluoromethyl-phenyl)-urea], the IC50 at Tie2 [1] and on Tie2 [2] was under 501 nM each time.
With `Cc1cc(-c2cncc3c2cnn3C)ccc1NC(=O)Nc1cccc(C(F)(F)F)c1` [Example 4.1, 1-[2-Methyl-4-(1-methyl-1H-pyrazolo[3,4-c]pyridin-4-yl)-phenyl]-3-(3-trifluoromethyl-phenyl)-urea], the IC50 on Tie2 [1] and on Tie2 [2] was under 501 nM throughout.
For `CN(C(=O)Nc1cccc(C(F)(F)F)c1)c1ccc(-c2cncc3c2cnn3C)cc1` [Example 6.1, 1-Methyl-1-[4-(1-methyl-1H-pyrazolo[3,4-c]pyridin-4-yl)-phenyl]-3-(3-trifluoromethyl-phenyl)-urea], the IC50 at Tie2 [1] and on Tie2 [2] was 501 to 1000 nM each time.
Take `Cn1ncc2c(-c3ccc(NC(=O)Nc4cc(C(F)(F)F)ccc4F)c(F)c3)cncc21` [Example 6.3, 1-[2-Fluoro-4-(1-methyl-1H-pyrazolo[3,4-c]pyridin-4-yl)-phenyl]-3-(2-fluoro-5-trifluoromethyl-phenyl)-urea]: the IC50 on Tie2 [1] and against Tie2 [2] was under 501 nM in each case.
Turning to `CN1CCN(Cc2ccc(NC(=O)Nc3ccc(-c4cncc5c4cnn5C)cc3)cc2C(F)(F)F)CC1` [Example 6.4, 1-[4-(4-Methyl-piperazin-1-ylmethyl)-3-trifluoromethyl-phenyl]-3-[4-(1-methyl-1H-pyrazolo[3,4-c]pyridin-4-yl)-phenyl]-urea], the IC50 at Tie2 [1] and on Tie2 [2] was under 501 nM each time.
`O=C(Nc1ccc(-c2cncc3c2cnn3CCO)cc1F)Nc1cc(C(F)(F)F)ccc1F` [Example 8.1, 1-{2-Fluoro-4-[1-(2-hydroxy-ethyl)-1H-pyrazolo[3,4-c]pyridin-4-yl]-phenyl}-3-(2-fluoro-5-trifluoromethyl-phenyl)-urea]: the IC50 on Tie2 [1] and against Tie2 [2] was under 501 nM in each case.
In the case of `O=C(Nc1ccc(-c2cncc3c2cnn3CCO)cc1)Nc1cc(C(F)(F)F)ccc1F` [Example 8.2, 1-(2-Fluoro-5-trifluoromethyl-phenyl)-3-{4-[1-(2-hydroxy-ethyl)-1H-pyrazolo[3,4-c]pyridin-4-yl]-phenyl}-urea], the IC50 at Tie2 [1] and on Tie2 [2] was under 501 nM throughout.
On to `O=C(Nc1cccc(C(F)(F)F)c1)Nc1ccc(-c2cncc3c2cnn3CCO)cc1F` [Example 8.5, 1-{2-Fluoro-4-[1-(2-hydroxy-ethyl)-1H-pyrazolo[3,4-c]pyridin-4-yl]-phenyl}-3-(3-trifluoromethyl-phenyl)-urea], for which the IC50 on Tie2 [1] and on Tie2 [2] was under 501 nM in each case.
Regarding `CN1CCN(Cc2ccc(NC(=O)Nc3ccc(-c4cncc5c4cnn5CCO)cc3)cc2C(F)(F)F)CC1` [Example 8.6, 1-{4-[1-(2-Hydroxy-ethyl)-1H-pyrazolo[3,4-c]pyridin-4-yl]-phenyl}-3-[4-(4-methyl-piperazin-1-ylmethyl)-3-trifluoromethyl-phenyl]-urea], the IC50 at Tie2 [1] and on Tie2 [2] was under 501 nM in each case.
For the molecule `CCn1ncc2c(-c3ccc(NC(=O)Nc4cc(C(F)(F)F)ccc4F)cc3)cncc21` [Example 10.5, 1-[4-(1-Ethyl-1H-pyrazolo[3,4-c]pyridin-4-yl)-phenyl]3-(2-fluoro-5-trifluoromethyl-phenyl)-urea], the IC50 at Tie2 [1] and on Tie2 [2] was under 501 nM each time.
For the molecule `CCn1ncc2c(-c3ccc(NC(=O)Nc4cccc(C(F)(F)F)c4)c(F)c3)cncc21` [Example 11.1, 1-[4-(1-Ethyl-1H-pyrazolo[3,4-c]pyridin-4-yl)-2-fluoro-phenyl]-3-(3-trifluoromethyl-phenyl)-urea], the IC50 on Tie2 [1] and on Tie2 [2] was under 501 nM throughout.

Values taken from patent US20090062273A1, “3-H-pyrazolopyridines and salts thereof, pharmaceutical compositions comprising same, methods of preparing same and uses of same” (priority 2006, published 2009).
